Measured values taken from ChEMBL document CHEMBL1909046, “DrugMatrix in vitro pharmacology data”.

What was measured:
Cytochrome P450 3A4 = Cytochrome P450 3A4 (Homo sapiens, UniProt P08684); details: bti-tn-5b1-4; also: in other assays of this panel Not Active means under 50% inhibition at 10 µM
[1] = DRUGMATRIX: ATPase, Na+/K+ enzyme inhibition (substrate: ATP); format: tissue-based, Sus scrofa, Heart; details: Not Active = under 50% inhibition at 10 µM
[2] = target: T1, Neuropeptide Y receptor type 1 (Homo sapiens, UniProt P25929); format: cell membranes, Membrane; details: sk-n-mc; also: in other assays of this panel Not Active means under 50% inhibition at 10 µM
T1 sequence (P25929 whole entry): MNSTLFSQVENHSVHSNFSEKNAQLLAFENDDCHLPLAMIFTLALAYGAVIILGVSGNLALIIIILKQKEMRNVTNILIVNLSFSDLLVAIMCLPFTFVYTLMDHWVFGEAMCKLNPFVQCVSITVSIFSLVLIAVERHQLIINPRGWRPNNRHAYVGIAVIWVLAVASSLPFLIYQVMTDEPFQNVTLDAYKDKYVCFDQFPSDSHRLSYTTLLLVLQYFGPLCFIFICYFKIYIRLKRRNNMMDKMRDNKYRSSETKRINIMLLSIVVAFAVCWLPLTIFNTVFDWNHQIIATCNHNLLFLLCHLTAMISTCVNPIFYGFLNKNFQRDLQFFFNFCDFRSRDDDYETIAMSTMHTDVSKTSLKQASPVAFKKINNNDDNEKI

[3] = target: 5-hydroxytryptamine receptor 6 (Homo sapiens, UniProt P50406); format: cell membranes, HeLa, Membrane; details: hela; also: in other assays of this panel Not Active means under 50% inhibition at 10 µM
Melanocortin receptor 5 = Melanocortin receptor 5 (Homo sapiens, UniProt P33032); format: cell membranes, Membrane; details: hek293; also: in other assays of this panel Not Active means under 50% inhibition at 10 µM
Estrogen receptor = target: T2, Estrogen receptor (Homo sapiens, UniProt P03372); details: sf9; also: in other assays of this panel Not Active means under 50% inhibition at 10 µM
T2 sequence (P03372 whole entry): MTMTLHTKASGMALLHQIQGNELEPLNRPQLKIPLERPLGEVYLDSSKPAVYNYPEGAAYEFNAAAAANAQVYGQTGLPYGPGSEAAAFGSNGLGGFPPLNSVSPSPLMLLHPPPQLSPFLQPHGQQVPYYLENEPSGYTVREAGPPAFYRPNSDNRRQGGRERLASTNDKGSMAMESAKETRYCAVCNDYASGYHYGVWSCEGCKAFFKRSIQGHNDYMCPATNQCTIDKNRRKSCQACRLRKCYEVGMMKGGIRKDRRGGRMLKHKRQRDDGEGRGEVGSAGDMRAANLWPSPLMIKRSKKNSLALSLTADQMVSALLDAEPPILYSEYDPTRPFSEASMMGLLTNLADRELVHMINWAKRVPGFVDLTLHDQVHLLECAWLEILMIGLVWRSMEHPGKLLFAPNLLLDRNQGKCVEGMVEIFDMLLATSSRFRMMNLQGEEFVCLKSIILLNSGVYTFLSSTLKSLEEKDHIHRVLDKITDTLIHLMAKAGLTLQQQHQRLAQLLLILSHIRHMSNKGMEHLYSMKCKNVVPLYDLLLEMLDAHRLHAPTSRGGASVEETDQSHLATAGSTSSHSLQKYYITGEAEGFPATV

[4] = target: Sodium-dependent dopamine transporter (Homo sapiens, UniProt Q01959); test: DRUGMATRIX: Dopamine Transporter radioligand binding (ligand: [125I] RTI-55); format: cell membranes, CHO-K1, Membrane; details: cho-k1; Not Active = under 50% inhibition at 10 µM
Sequence of Sodium-dependent dopamine transporter (Q01959 whole entry): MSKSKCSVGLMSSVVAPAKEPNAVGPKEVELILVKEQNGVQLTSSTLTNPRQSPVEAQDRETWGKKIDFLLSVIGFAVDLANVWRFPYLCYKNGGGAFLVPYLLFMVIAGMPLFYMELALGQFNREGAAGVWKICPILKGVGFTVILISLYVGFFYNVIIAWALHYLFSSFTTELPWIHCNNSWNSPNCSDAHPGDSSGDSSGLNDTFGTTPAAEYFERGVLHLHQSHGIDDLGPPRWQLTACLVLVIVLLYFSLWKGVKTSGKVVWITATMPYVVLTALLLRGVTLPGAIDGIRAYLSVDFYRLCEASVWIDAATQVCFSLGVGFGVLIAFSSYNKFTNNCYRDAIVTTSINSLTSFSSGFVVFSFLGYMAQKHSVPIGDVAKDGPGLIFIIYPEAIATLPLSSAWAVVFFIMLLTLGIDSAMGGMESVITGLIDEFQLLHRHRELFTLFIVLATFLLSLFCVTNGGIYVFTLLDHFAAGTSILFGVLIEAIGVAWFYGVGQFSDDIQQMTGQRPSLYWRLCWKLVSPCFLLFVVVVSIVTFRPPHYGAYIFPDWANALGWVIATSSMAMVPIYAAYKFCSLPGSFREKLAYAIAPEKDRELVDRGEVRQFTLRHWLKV

Sequence of Melanocortin receptor 5 (P33032 whole entry): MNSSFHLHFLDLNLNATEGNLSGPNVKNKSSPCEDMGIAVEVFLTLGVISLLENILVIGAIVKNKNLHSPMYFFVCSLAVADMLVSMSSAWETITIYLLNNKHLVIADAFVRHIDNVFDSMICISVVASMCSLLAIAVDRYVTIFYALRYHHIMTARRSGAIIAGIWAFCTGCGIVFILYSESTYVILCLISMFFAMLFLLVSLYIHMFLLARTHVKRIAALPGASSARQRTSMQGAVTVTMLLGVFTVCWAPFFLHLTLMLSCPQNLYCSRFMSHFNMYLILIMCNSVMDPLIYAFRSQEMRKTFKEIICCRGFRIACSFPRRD
Sequence of 5-hydroxytryptamine receptor 6 (P50406 whole entry): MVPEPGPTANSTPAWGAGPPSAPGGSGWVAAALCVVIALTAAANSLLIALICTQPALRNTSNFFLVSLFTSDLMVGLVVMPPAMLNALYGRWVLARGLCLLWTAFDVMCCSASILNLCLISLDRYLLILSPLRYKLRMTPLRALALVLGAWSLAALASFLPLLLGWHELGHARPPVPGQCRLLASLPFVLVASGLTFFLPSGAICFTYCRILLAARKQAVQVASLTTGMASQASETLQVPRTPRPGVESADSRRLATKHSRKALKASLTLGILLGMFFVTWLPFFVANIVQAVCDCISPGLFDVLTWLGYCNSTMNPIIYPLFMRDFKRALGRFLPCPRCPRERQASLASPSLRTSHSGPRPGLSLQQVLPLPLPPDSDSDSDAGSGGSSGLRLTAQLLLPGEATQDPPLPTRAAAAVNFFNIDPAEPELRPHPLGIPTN
Sequence of Cytochrome P450 3A4 (P08684 whole entry): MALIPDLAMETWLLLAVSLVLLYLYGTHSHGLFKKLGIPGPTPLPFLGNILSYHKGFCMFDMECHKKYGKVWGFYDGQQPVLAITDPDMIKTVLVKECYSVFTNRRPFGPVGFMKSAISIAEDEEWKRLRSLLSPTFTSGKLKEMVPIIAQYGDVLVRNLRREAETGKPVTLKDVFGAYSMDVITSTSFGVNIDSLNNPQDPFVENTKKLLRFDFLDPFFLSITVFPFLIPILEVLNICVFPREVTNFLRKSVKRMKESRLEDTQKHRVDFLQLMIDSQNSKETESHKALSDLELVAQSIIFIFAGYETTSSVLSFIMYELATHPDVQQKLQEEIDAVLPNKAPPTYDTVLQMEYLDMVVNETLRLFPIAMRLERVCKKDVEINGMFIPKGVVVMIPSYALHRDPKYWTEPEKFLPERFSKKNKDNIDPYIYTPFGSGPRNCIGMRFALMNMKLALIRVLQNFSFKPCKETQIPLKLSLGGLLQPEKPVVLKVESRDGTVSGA

SMILES | IC50 (Cytochrome P450 3A4) | Ki (Cytochrome P450 3A4) | IC50 ([1]; read-out: IC50) | IC50 [2] | IC50 [3] | IC50 (Melanocortin receptor 5) | IC50 (Estrogen receptor) | IC50 [4] | IC50 [1] | Ki [1]
C[C@H]1O[C@@H](O[C@H]2[C@@H](O)C[C@H](O[C@H]3[C@@H](O)C[C@H](O[C@H]4CC[C@@]5(C)[C@H](CC[C@@H]6[C@@H]5CC[C@]5(C)[C@@H](C7=CC(=O)OC7)CC[C@]65O)C4)O[C@@H]3C)O[C@@H]2C)C[C@H](O)[C@@H]1O [DIGITOXIN] | Not Active | Not Active | 0.225 µM | Not Active | Not Active | Not Active | Not Active | Not Active | – | –
COc1cccc2c1C(=O)c1c(O)c3c(c(O)c1C2=O)C[C@@](O)(C(=O)CO)C[C@@H]3O[C@H]1C[C@H](N)[C@H](O)[C@H](C)O1 [DOXORUBICIN] | Not Active | Not Active | – | Not Active | Not Active | Not Active | Not Active | Not Active | Not Active | Not Active
COc1cccc2c1C(=O)c1c(O)c3c(c(O)c1C2=O)C[C@@](O)(C(=O)CO)C[C@@H]3O[C@H]1C[C@H](N)[C@@H](O)[C@H](C)O1 [EPIRUBICIN] | Not Active | Not Active | – | Not Active | Not Active | Not Active | Not Active | Not Active | Not Active | Not Active
CC1(C)O[C@@H]2C[C@H]3[C@@H]4C[C@H](F)C5=CC(=O)C=C[C@]5(C)[C@H]4[C@@H](O)C[C@]3(C)[C@]2(C(=O)CO)O1 [FLUNISOLIDE] | Not Active | Not Active | – | Not Active | Not Active | Not Active | Not Active | Not Active | Not Active | Not Active
CC1(C)O[C@@H]2C[C@H]3[C@@H]4C[C@H](F)C5=CC(=O)C=C[C@]5(C)[C@@]4(F)[C@@H](O)C[C@]3(C)[C@]2(C(=O)CO)O1 [FLUOCINOLONE ACETONIDE] | Not Active | Not Active | – | Not Active | Not Active | Not Active | Not Active | Not Active | Not Active | Not Active
CC1(C)O[C@@H]2C[C@H]3[C@@H]4C[C@H](F)C5=CC(=O)CC[C@]5(C)[C@H]4[C@@H](O)C[C@]3(C)[C@]2(C(=O)CO)O1 [FLURANDRENOLIDE] | Not Active | Not Active | – | Not Active | Not Active | Not Active | Not Active | Not Active | Not Active | Not Active
Cc1ccc(S(=O)(=O)NC(=O)NN2CC3CCCC3C2)cc1 (stereo not given) [GLICLAZIDE] | Not Active | Not Active | – | Not Active | Not Active | Not Active | Not Active | Not Active | Not Active | Not Active
CC(C)Cc1ccc(C(C)C(=O)O)cc1 (stereo not given) [IBUPROFEN] | Not Active | Not Active | – | Not Active | Not Active | Not Active | Not Active | Not Active | Not Active | Not Active
COc1ccc2c(c1)c(CC(=O)O)c(C)n2C(=O)c1ccc(Cl)cc1 [INDOMETHACIN] | Not Active | Not Active | – | Not Active | Not Active | Not Active | Not Active | Not Active | Not Active | Not Active
CCc1c2c(nc3ccc(OC(=O)N4CCC(N5CCCCC5)CC4)cc13)-c1cc3c(c(=O)n1C2)COC(=O)[C@]3(O)CC [IRINOTECAN] | Not Active | Not Active | – | Not Active | Not Active | Not Active | Not Active | Not Active | Not Active | Not Active
CC(C(=O)O)c1cccc(C(=O)c2ccccc2)c1 (stereo not given) [KETOPROFEN] | Not Active | Not Active | – | Not Active | Not Active | Not Active | Not Active | Not Active | Not Active | Not Active
O=S(=O)([O-])CCS.[Na+] [MESNA] | Not Active | Not Active | – | Not Active | Not Active | Not Active | Not Active | Not Active | Not Active | Not Active
CC(=O)Nc1cccc(O)c1 [METACETAMOL] | Not Active | Not Active | – | Not Active | Not Active | Not Active | Not Active | Not Active | Not Active | Not Active
Cc1ncc([N+](=O)[O-])n1CCO [METRONIDAZOLE] | Not Active | Not Active | – | Not Active | Not Active | Not Active | Not Active | Not Active | Not Active | Not Active
Oc1ccc(OCc2ccccc2)cc1 [MONOBENZONE] | Not Active | Not Active | – | Not Active | Not Active | Not Active | Not Active | Not Active | Not Active | Not Active
CC(C)(Oc1ccc(C2CCCc3ccccc32)cc1)C(=O)O (stereo not given) [NAFENOPIN] | Not Active | Not Active | – | Not Active | Not Active | Not Active | Not Active | Not Active | Not Active | Not Active
CC(C)[C@H]1CC[C@H](C(=O)N[C@H](Cc2ccccc2)C(=O)O)CC1 [NATEGLINIDE] | Not Active | Not Active | – | Not Active | Not Active | Not Active | Not Active | Not Active | Not Active | Not Active
CCN[C@@H]1C[C@H](N)[C@@H](O[C@H]2OC(CN)=CC[C@H]2N)[C@H](O)[C@H]1O[C@H]1OC[C@](C)(O)[C@H](NC)[C@H]1O [NETILMICIN] | Not Active | Not Active | – | Not Active | Not Active | Not Active | Not Active | Not Active | Not Active | Not Active
CCOC(=O)C1=C(C)NC(C)=C(C(=O)OC)C1c1cccc([N+](=O)[O-])c1 (stereo not given) [NITRENDIPINE] | Not Active | Not Active | – | Not Active | Not Active | Not Active | Not Active | Not Active | Not Active | Not Active
COc1ccc2[nH]c([S+]([O-])Cc3ncc(C)c(OC)c3C)nc2c1 (stereo not given) [OMEPRAZOLE] | Not Active | Not Active | – | Not Active | Not Active | Not Active | Not Active | Not Active | Not Active | Not Active
Cc1nccn1CC1CCc2c(c3ccccc3n2C)C1=O (stereo not given) [ONDANSETRON] | Not Active | Not Active | – | Not Active | Not Active | Not Active | Not Active | Not Active | Not Active | Not Active
CCCCOc1ccc(OCCCN2CCOCC2)cc1 [PRAMOXINE] | Not Active | Not Active | – | Not Active | Not Active | Not Active | Not Active | Not Active | Not Active | Not Active
NC(=O)c1cnccn1 [PYRAZINAMIDE] | Not Active | Not Active | – | Not Active | Not Active | Not Active | Not Active | Not Active | Not Active | Not Active
OC(CCN1CCCCC1)(c1ccccc1)C1CCCCC1 (stereo not given) [TRIHEXYPHENIDYL] | Not Active | Not Active | – | Not Active | Not Active | Not Active | Not Active | Not Active | Not Active | Not Active
